Data taken from patent US9242984B2, “Pyrazolyl derivatives as Syk inhibitors” (Merck Sharp & Dohme Corp., priority 2012, dated 2016).

Target: T1, recombinant human Syk (GST-hSyk fusion protein) (Homo sapiens, UniProt P43405)
T1 construct: purchased Carna Biosciences 08-176
Assay: Homogeneous Time-Resolved Fluorescence (HTRF) assay for the recombinant human Syk enzyme
Type: biochemical
Details: IC50 class; 10-dose titration, 25 μM ATP; read-out: rhSYK Activity
In short: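 IC50 came from a four-parameter fit over ten doses, 10 μM to 0.508 nM, with HTRF read-out (Eu-anti-pTyr antibody, SA-APC, EDTA stop, 30 min). The enzyme, 5 pM GST-hSyk, met compound for 10 min, then phosphorylated 250 nM biotin-peptide with 25 μM ATP and 5 mM Mg for 45 min at room temperature, pH 7.5.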

Compound | IC50 [nM]
Cc1cc(Nc2nccc(C3CC3)n2)cc(-c2cnn(CCC(=O)O)c2)c1 [Example 2.40, 3-(4-{3-[(4-cyclopropylpyrimidin-2-yl)amino]-5-methylphenyl}-1H-pyrazol-1-yl)propanoic acid] | ≤ 100
CCOC(=O)CCn1cc(-c2cc(C)cc(Nc3nccc(C4CC4)n3)c2)cn1 [Example 2.41, ethyl 3-(4-{3-[(4-cyclopropylpyrimidin-2-yl)amino]-5-methylphenyl}-1H-pyrazol-1-yl)propanoate] | < 1000
CCOC(=O)CCn1cc(-c2cc(C)cc(Nc3nccc(C)n3)c2)cn1 [Example 2.42, ethyl 3-(4-{3-methyl-5-[(4-methylpyrimidin-2-yl)amino]phenyl}-1H-pyrazol-1-yl)propanoate] | ≤ 100
CCOC(=O)CCn1cc(-c2cc(C)cc(Nc3nccc(C(F)(F)F)n3)c2)cn1 [Example 2.43, ethyl 3-[4-(3-methyl-5-{[4-(trifluoromethyl)pyrimidin-2-yl]amino}phenyl)-1H-pyrazol-1-yl]propanoate] | ≤ 100
Cc1cc(Nc2nccc(C)n2)cc(-c2cnn(CCC(=O)O)c2)c1 [Example 2.44, 3-(4-{3-methyl-5-[(4-methylpyrimidin-2-yl)amino]phenyl}-1H-pyrazol-1-yl)propanoic acid] | ≤ 100
Cc1cc(Nc2nccc(C(F)(F)F)n2)cc(-c2cnn(CC3CNC(=O)O3)c2)c1 (stereo not drawn) [Example 2.45, 5-{[4-(3-methyl-5-{[4-(trifluoromethyl)-pyrimidin-2-yl]amino}phenyl)-1H-pyrazol-1-yl]methyl}-1,3-oxazolidin-2-one] | ≤ 100
Cc1cc(Nc2ncccn2)cc(-c2cnn(Cc3ccc(C(N)=O)cc3)c2)c1 [Example 2.57, 4-({4-[3-methyl-5-(pyrimidin-2-ylamino)phenyl]-1H-pyrazol-1-yl}methyl)benzamide] | ≤ 100
Cc1cc(Nc2ncccn2)cc(-c2cnn(Cc3ccc(O)cc3)c2)c1 [Example 2.58, 4-({4-[3-methyl-5-(pyrimidin-2-ylamino)phenyl]-1H-pyrazol-1-yl}methyl)phenol] | ≤ 100

The next lines start with the values.

IC50 [nM] | Compound
≤ 100 | Cc1cc(Nc2nccc(C(F)(F)F)n2)cc(-c2cnn3ncccc23)c1 [Example 2.35, N-(3-methyl-5-pyrazolo[1,5-b]pyridazin-3-ylphenyl)-4-(trifluoromethyl)pyrimidin-2-amine]
≤ 100 | COc1ccc2c(-c3cc(C)cc(Nc4nccc(C(F)(F)F)n4)c3)cnn2n1 [Example 2.36, N-[3-(6-methoxypyrazolo[1,5-b]pyridazin-3-yl)-5-methylphenyl]-4-(trifluoromethyl)pyrimidin-2-amine]
100 to 1000 | Cc1cc(Nc2nccc(C(F)(F)F)n2)cc(-c2cnn3cccnc23)c1 [Example 2.37, N-(3-methyl-5-pyrazolo[1,5-a]pyrimidin-3-ylphenyl)-4-(trifluoromethyl)pyrimidin-2-amine]
100 to 1000 | Cc1cc(Nc2nccc(C(F)(F)F)n2)cc(-c2c(C)n[nH]c2C)c1 [Example 2.38, N-[3-(3,5-dimethyl-1H-pyrazol-4-yl)-5-methylphenyl]-4-(trifluoromethyl)pyrimidin-2-amine]
100 to 1000 | Cc1cc(Nc2nccc(C(F)(F)F)n2)cc(-c2c[nH]nc2C)c1 [Example 2.39, N-[3-methyl-5-(3-methyl-1H-pyrazol-4-yl)phenyl]-4-(trifluoromethyl)pyrimidin-2-amine]
≤ 100 | Cc1cc(Nc2nccc(C(F)(F)F)n2)cc(-c2ccn(C)n2)c1 [Example 2.46, N-[3-methyl-5-(1-methyl-1H-pyrazol-3-yl)phenyl]-4-(trifluoromethyl)-pyrimidin-2-amine]
100 to 1000 | Cc1cc(Nc2nccc(C(F)(F)F)n2)cc(-c2n[nH]c3ccccc23)c1 [Example 2.47, N-[3-(1H-indazol-3-yl)-5-methylphenyl]-4-(trifluoromethyl)-pyrimidin-2-amine]
